Source: patent publication US11458123B2 (Arvinas, Inc., priority 2016, dated 2022)

System: tau protein
Assay: Tau protein in vitro degradation assay (Western blot, Tau-13 antibody)
Assay type: cell-based, human
Settings: SK-N-SH cells, 72 hours of incubation; for Degradation activity (tau protein remaining; highest amount of degradation observed at any dosage) / Degradation activity* (highest amount of degradation observed at any dosage; tau protein remaining): tested at 300 nM, 100 nM, 33 nM and 11 nM, Western blot, Tau-13 antibody; for Activity* (highest amount of degradation observed at any dosage, as tau protein remaining): tested at 1000 nM, 300 nM and 100 nM
In short: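 Tau degradation read by Tau-13 Western blot (detects all human tau forms) of SDS-PAGE-resolved lysates from SK-N-SH cells. Cells were plated at least 18 h before 72 h exposure to PROTACs at either 1000/300/100 nM or 300/100/33/11 nM.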

| Compound | Degradation activity* (highest amount of degradation observed at any dosage; tau protein remaining) | other results |
| --- | --- | --- |
| O=C1CCC(N2C(=O)c3ccc(OCCOCC#Cc4ccc(O[C@H]5C[C@H](Oc6ccc(-c7ccc8c(c7)[nH]c7ccncc78)cn6)C5)cn4)cc3C2=O)C(=O)N1 (some centres unmarked) [Compound 173, 5-(2-((3-(5-((1r,3r)-3-((5-(5H-pyrido[4,3-b]indol-7-yl)pyridin-2-yl)oxy)cyclobutoxy)pyridin-2-yl)prop-2-yn-1-yl)oxy)ethoxy)-2-(2,6-dioxopiperidin-3-yl)isoindoline-1,3-dione] |  | Degradation activity (tau protein remaining; highest amount of degradation observed at any dosage): A (≤50% tau protein remaining after 72 hours of incubation with the test compound) |
| Cn1c2ccncc2c2ccc(-c3ccc(OCCOCCOCCOCCOCCNc4cccc5c4C(=O)N(C4CCC(=O)NC4=O)C5=O)nc3)cc21 (centres unmarked) [Compound 48, 2-(2,6-dioxopiperidin-3-yl)-4-(14-(5-(5-methyl-5H-pyrido[4,3-b]indol-7-yl)pyridin-2-yloxy)-3,6,9,12-tetraoxatetradecylamino)isoindoline-1,3-dione] |  | Activity* (highest amount of degradation observed at any dosage, as tau protein remaining): A (≤50% tau protein remaining after 72 hours of incubation with the test compound) |
| O=C1CCC(N2C(=O)c3ccc(OCCCCCN4CCN(CCCc5ccc(-c6ccc7c(c6)[nH]c6ccncc67)cn5)CC4)cc3C2=O)C(=O)N1 (centres unmarked) [Compound 54, 5-((5-(4-(3-(5-(5H-pyrido[4,3-b]indol-7-yl)pyridin-2-yl)propyl)piperazin-1-yl)pentyl)oxy)-2-(2,6-dioxopiperidin-3-yl)isoindoline-1,3-dione] | C (>80% tau protein remaining after 72 hours of incubation with the test compound) |  |
| Cn1c2ccncc2c2ccc(-c3ccc(O[C@H]4C[C@H](Oc5ccnc(OCCCCCCOc6ccc7c(c6)C(=O)N(C6CCC(=O)NC6=O)C7=O)c5)C4)nc3)cc21 (some centres unmarked) [Compound 109, 2-(2,6-dioxopiperidin-3-yl)-5-((6-((4-((1r,3r)-3-((5-(5-methyl-5H-pyrido[4,3-b]indol-7-yl)pyridin-2-yl)oxy)cyclobutoxy)pyridin-2-yl)oxy)hexyl)oxy)isoindoline-1,3-dione] | C (>80% tau protein remaining after 72 hours of incubation with the test compound) |  |
| Cn1c2ccncc2c2ccc(-c3ccc(CCCN4CCN(CCCCCOc5ccc6c(c5)CN(C5CCC(=O)NC5=O)C6=O)CC4)nc3)cc21 (centres unmarked) [Compound 62, 3-(5-((5-(4-(3-(5-(5-methyl-5H-pyrido[4,3-b]indol-7-yl)pyridin-2-yl)propyl)piperazin-1-yl)pentyl)oxy)-1-oxoisoindolin-2-yl)piperidine-2,6-dione] | C (>80% tau protein remaining after 72 hours of incubation with the test compound) |  |
| Cn1c2ccncc2c2ccc(-c3ccc(O[C@H]4C[C@H](OCCOCCOCC5CN(c6ccc7c(c6)C(=O)N(C6CCC(=O)NC6=O)C7=O)C5)C4)nc3)cc21 (some centres unmarked) [Compound 192, 2-(2,6-dioxopiperidin-3-yl)-5-(3-((2-(2-((1r,3r)-3-((5-(5-methyl-5H-pyrido[4,3-b]indol-7-yl)pyridin-2-yl)oxy)cyclobutoxy)ethoxy)ethoxy)methyl)azetidin-1-yl)isoindoline-1,3-dione] |  | Degradation activity (tau protein remaining; highest amount of degradation observed at any dosage): C (>80% tau protein remaining after 72 hours of incubation with the test compound) |
| Cc1ncsc1-c1ccc(CNC(=O)[C@@H]2C[C@@H](O)CN2C(=O)[C@@H](NC(=O)COCCOCCOCCOCCOc2ccc3nc(-c4ccc(N(C)C)cc4)ccc3c2)C(C)(C)C)cc1 [Compound 31] |  | Activity* (highest amount of degradation observed at any dosage, as tau protein remaining): C (>80% tau protein remaining after 72 hours of incubation with the test compound) |
| Cc1ncsc1-c1ccc([C@H](C)NC(=O)[C@@H]2C[C@@H](O)CN2C(=O)[C@@H](NC(=O)COCCOCCOCCOCCOCCOc2ccc(-c3ccc4c(c3)[nH]c3ccncc34)cn2)C(C)(C)C)cc1 [Compound 121, (2S,4R)-1-((S)-20-((5-(5H-pyrido[4,3-b]indol-7-yl)pyridin-2-yl)oxy)-2-(tert-butyl)-4-oxo-6,9,12,15,18-pentaoxa-3-azaicosanoyl)-4-hydroxy-N—((S)-1-(4-(4-methylthiazol-5-yl)phenyl)ethyl)pyrrolidine-2-carboxamide] | B (≤80% and >50% tau protein remaining after 72 hours of incubation with the test compound) |  |
| Cn1c2ccncc2c2ccc(-c3ccc(O[C@H]4C[C@H](Oc5ccc(C#CCCCCOc6ccc7c(c6)C(=O)N(C6CCC(=O)NC6=O)C7=O)cn5)C4)nc3)cc21 (some centres unmarked) [Compound 102, 2-(2,6-dioxopiperidin-3-yl)-5-((6-(6-((1r,3r)-3-((5-(5-methyl-5H-pyrido[4,3-b]indol-7-yl)pyridin-2-yl)oxy)cyclobutoxy)pyridin-3-yl)hex-5-yn-1-yl)oxy)isoindoline-1,3-dione] | C (>80% tau protein remaining after 72 hours of incubation with the test compound) |  |
| Cc1ncoc1-c1ccc(CNC(=O)[C@@H]2C[C@@H](O)CN2C(=O)[C@@H](NC(=O)COCCOCCOCC(=O)N2CCN(c3ccn4c(n3)nc3ccccc34)CC2)C(C)(C)C)cc1 [Compound 13, (2S,4R)-1-((S)-14-(4-(benzo[4,5]imidazo[1,2-a]pyrimidin-2-yl)piperazin-1-yl)-2-(tert-butyl)-4,14-dioxo-6,9,12-trioxa-3-azatetradecanoyl)-4-hydroxy-N-(4-(4-methyloxazol-5-yl)benzyl)pyrrolidine-2-carboxamide] |  | Activity* (highest amount of degradation observed at any dosage, as tau protein remaining): C (>80% tau protein remaining after 72 hours of incubation with the test compound) |
| Cn1c2ccncc2c2ccc(-c3ccc(O[C@H]4C[C@@H](C(=O)N5CC6(CC(OCCCCOc7ccc8c(c7)C(=O)N(C7CCC(=O)NC7=O)C8=O)C6)C5)C4)nc3)cc21 (some centres unmarked) [Compound 136, 2-(2,6-dioxopiperidin-3-yl)-5-(4-((2-((1 s,3 s)-3-((5-(5-methyl-5H-pyrido[4,3-b]indol-7-yl)pyridin-2-yl)oxy)cyclobutane-1-carbonyl)-2-azaspiro[3.3]heptan-6-yl)oxy)butoxy)isoindoline-1,3-dione] | C (>80% tau protein remaining after 72 hours of incubation with the test compound) |  |
| O=C1CCC(N2C(=O)c3ccc(OCCCCCN4CCN(CCO[C@H]5C[C@H](Oc6ccc(-c7ccc8c(c7)[nH]c7ccncc78)cn6)C5)CC4)cc3C2=O)C(=O)N1 (some centres unmarked) [Compound 59, 5-((5-(4-(2-((1r,3r)-3-((5-(5H-pyrido[4,3-b]indol-7-yl)pyridin-2-yl)oxy)cyclobutoxy)ethyl)piperazin-1-yl)pentyl)oxy)-2-(2,6-dioxopiperidin-3-yl)isoindoline-1,3-dione] | C (>80% tau protein remaining after 72 hours of incubation with the test compound) |  |
| Cn1c2ccncc2c2ccc(-c3cnc(OC4CCN(CCCOCCCOC5CN(c6ccc7c(c6)C(=O)N(C6CCC(=O)NC6=O)C7=O)C5)CC4)c(C(F)(F)F)c3)cc21 (centres unmarked) [Compound 130, 2-(2,6-dioxopiperidin-3-yl)-5-(3-(3-(3-(4-((5-(5-methyl-5H-pyrido[4,3-b]indol-7-yl)-3-(trifluoromethyl)pyridin-2-yl)oxy)piperidin-1-yl)propoxy)propoxy)azetidin-1-yl)isoindoline-1,3-dione] | B (≤80% and >50% tau protein remaining after 72 hours of incubation with the test compound) |  |
| Cc1ncsc1-c1ccc(CNC(=O)[C@@H]2C[C@@H](O)CN2C(=O)[C@H](C(C)C)N2Cc3ccccc3C2=O)c(OCCOCCOCCOc2ccc(-c3ccc4c(c3)[nH]c3ccncc34)cn2)c1 [Compound 187, (2S,4R)—N-(2-(2-(2-(2-((5-(5H-pyrido[4,3-b]indol-7-yl)pyridin-2-yl)oxy)ethoxy)ethoxy)ethoxy)-4-(4-methylthiazol-5-yl)benzyl)-4-hydroxy-1-((S)-3-methyl-2-(1-oxoisoindolin-2-yl)butanoyl)pyrrolidine-2-carboxamide] |  | Degradation activity (tau protein remaining; highest amount of degradation observed at any dosage): C (>80% tau protein remaining after 72 hours of incubation with the test compound) |
| CN(C)c1ccc(-c2ccc3cc(OCCCOCCOCCOCCNc4cccc5c4C(=O)N(C4CCC(=O)NC4=O)C5=O)ccc3n2)cc1 (centres unmarked) [Compound 44, 4-(2-(2-(2-(3-(2-(4-(dimethylamino)phenyl)quinolin-6-yloxy)propoxy)ethoxy)ethoxy)ethylamino)-2-(2,6-dioxopiperidin-3-yl)isoindoline-1,3-dione] |  | Activity* (highest amount of degradation observed at any dosage, as tau protein remaining): C (>80% tau protein remaining after 72 hours of incubation with the test compound) |
| Cn1c2ccncc2c2ccc(-c3ccc(O[C@H]4C[C@H](OCCOCCOCCOC5CN(c6ccc7c(c6)C(=O)N(C6CCC(=O)NC6=O)C7=O)C5)C4)nc3)cc21 (some centres unmarked) [Compound 161, 2-(2,6-dioxopiperidin-3-yl)-5-(3-(2-(2-(2-((1r,3r)-3-((5-(5-methyl-5H-pyrido[4,3-b]indol-7-yl)pyridin-2-yl)oxy)cyclobutoxy)ethoxy)ethoxy)ethoxy)azetidin-1-yl)isoindoline-1,3-dione] | C (>80% tau protein remaining after 72 hours of incubation with the test compound) |  |
| Cn1c2ccncc2c2ccc(-c3ccc(OC4CN(C(=O)C56CC(COCCCCCOc7ccc8c(c7)C(=O)N(C7CCC(=O)NC7=O)C8=O)(C5)C6)C4)nc3)cc21 (centres unmarked) [Compound 175, 2-(2,6-dioxopiperidin-3-yl)-5-((5-((3-(3-((5-(5-methyl-5H-pyrido[4,3-b]indol-7-yl)pyridin-2-yl)oxy)azetidine-1-carbonyl)bicyclo[1.1.1]pentan-1-yl)methoxy)pentyl)oxy)isoindoline-1,3-dione] |  | Degradation activity (tau protein remaining; highest amount of degradation observed at any dosage): C (>80% tau protein remaining after 72 hours of incubation with the test compound) |
